{"source": "paper PMC7046733", "about": "“Plantaricin NC8 αβ exerts potent antimicrobial activity against Staphylococcus spp. and enhances the effects of antibiotics” (Scientific Reports, 2020)", "tested_on": "Trypsin", "assay": "Proteolytic degradation", "format": "in vitro ADME", "settings": "peptide 100 µM, trypsin 0.125 mg/ml (~5 µM), ammonium bicarbonate buffer 50 mM pH 8.5, 16 h, 37 °C, MALDI-ToF MS", "text": "Samples were resuspended in MQ-water containing 0.1% TFA, desalted using ZipTip-C18 columns (Millipore) and analyzed using MALDI-ToF with α-cyano-4-hydroxycinnamic acid as matrix.", "note": "Residues, ends and D or L forms follow the SMILES beside them.", "data": [{"molecule": "CC[C@H](C)[C@H](NC(=O)CNC(=O)[C@H](CC(C)C)NC(=O)[C@@H](NC(=O)[C@H](Cc1ccc(O)cc1)NC(=O)[C@@H](NC(=O)[C@H](CO)NC(=O)[C@@H](NC(=O)[C@@H]1CCCN1C(=O)[C@@H](NC(=O)[C@@H](N)CO)C(C)C)[C@@H](C)O)C(C)C)[C@@H](C)O)C(=O)N[C@@H](CCCCN)C(=O)N[C@H](C(=O)N[C@@H](CC(C)C)C(=O)N[C@@H](Cc1c[nH]c2ccccc12)C(=O)N[C@@H](CO)C(=O)N[C@@H](C)C(=O)N[C@@H](Cc1ccc(O)cc1)C(=O)N[C@@H](CCCCN)C(=O)N[C@@H](Cc1c[nH]cn1)C(=O)N[C@@H](CCCNC(=N)N)C(=O)N[C@@H](CCCCN)C(=O)N[C@H](C(=O)N[C@H](C(=O)N[C@@H](CCC(=O)O)C(=O)N[C@@H](CCCCN)C(=O)N[C@@H](CO)C(=O)N[C@@H](Cc1ccccc1)C(=O)N[C@@H](CC(N)=O)C(=O)N[C@@H](CCCCN)C(=O)NCC(=O)N[C@@H](Cc1ccccc1)C(=O)N[C@@H](Cc1ccc(O)cc1)C(=O)N[C@@H](Cc1c[nH]cn1)C(=O)O)[C@@H](C)CC)[C@@H](C)O)[C@@H](C)CC", "note": "[L-PLNC8 β] (H-SVPTSVYTLGIKILWSAYKHRKTIEKSFNKGFYH-OH)", "values": [{"measurement": "degradation by trypsin", "value": "efficiently degraded by trypsin"}]}]}
